Patent US6461997B1, “Triazole sulfones having herbicidal activity” (Monsanto Technology LLC, priority 1999, dated 2002)

How the values were obtained:
AVEFA (wild oat) = experiment: Pre-plant incorporated (PPI) herbicidal activity, cool season; format: in vivo, Avena fatua; details: for PPI activity GR80, AVEFA: pre-plant incorporated, lowest tested rate with 80% or greater inhibition, about 14 days
How it was run: (§1)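 Soil-incorporated application: seeds sat beneath a cover layer into which the compound had been sprayed and mixed. Greenhouse growth used a 30/21° C or 18/13° C day/night regime depending on season type. Around 14 days later, inhibition was estimated as a percentage of untreated growth.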

SASKR (russian thistle) = experiment: Pre-emergence herbicidal activity, cool season; format: in vivo, Salsola kali; details: lowest tested rate with 80% or greater inhibition; rates 300, 100, 30, 10 g/ha; about 14 days
How it was run: (§2)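 GR80 values derive from percent inhibition relative to untreated plants, read roughly 14 days after sowing and pre-emergence soil-surface treatment (compound in 50:50 acetone/water; rates typically 10, 30, 100, 300 g/ha). Warm-season weeds grew at 30/21° C day/night, cool-season ones at 18/13° C; an asterisk marks activity without reaching 80% at the highest rate.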

PANDI (fall panicum) = experiment: Pre-plant incorporated (PPI) herbicidal activity, warm season; format: in vivo, Panicum dichotomiflorum; details: pre-plant incorporated; lowest tested rate with 80% or greater inhibition; about 14 days
How it was run: as §1

ALOMY (blackgrass) = experiment: Pre-plant incorporated (PPI) herbicidal activity, cool season; format: in vivo, Alopecurus myosuroides; details: for PPI activity GR80, ALOMY: pre-plant incorporated, lowest tested rate with 80% or greater inhibition, about 14 days
How it was run: as §1

POLCO (wild buckwheat) = experiment: as above; format: in vivo, Polygonum convolvulus; details: pre-plant incorporated; lowest tested rate with 80% or greater inhibition; about 14 days
How it was run: as §1

[1] = system: CHEAL (common lambsquarters); experiment: Pre-emergence herbicidal activity, warm season; format: in vivo, Chenopodium album; details: GR80 = lowest tested rate (300, 100, 30, 10 g/ha) with 80% or greater inhibition; approx. 14 days after treating; 30/21° C.
How it was run: as §2

LOLMG (annual ryegrass) = experiment: Post-emergence herbicidal activity, cool season; format: in vivo, Lolium multiflorum; details: abraded plants sprayed at 300, 100, 30 and 10 g/ha; about 14 days after treatment
How it was run: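 Seeds sown in topsoil, covered with 50% topsoil/50% Rediearth™, subirrigated. At 9 to 14 days, foliage abraded, then sprayed at 300, 100, 30 or 10 g/ha in acetone/water 50:50. Plants held at 18/13° C. day/night, rated for % inhibition at ~14 days, GR80 assigned.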

SETVI (green foxtail) = experiment: Pre-plant incorporated (PPI) herbicidal activity, cool season; format: in vivo, Setaria viridis; details: for PPI activity GR80, SETVI: pre-plant incorporated, lowest tested rate with 80% or greater inhibition, about 14 days
How it was run: as §1

[2] = weed, PPI application, 100 g/ha
[3] = weed, PPI application, 300 g/ha
[4] = weed, PPI application, 900 g/ha

`C=CCC(F)(F)S(=O)(=O)c1ncn(C(=O)N(CC)CC)n1` [Example 17, 1-(N,N-diethylcarbamoyl)-3-[(1,1-difluoro-3-butenyl)sulfonyl]-1,2,4-triazole] gave an inhibition at 10 g/ha (AVEFA (wild oat); Avena fatua, weed, PPI application, 10 g/ha, read-out: Percent inhibition AVEFA) of 0%, an inhibition at 30 g/ha (AVEFA (wild oat); Avena fatua, weed, PPI application, 30 g/ha, read-out: Percent inhibition AVEFA) of 15% and an inhibition at 100 g/ha (AVEFA (wild oat); Avena fatua, weed, PPI application, 100 g/ha, read-out: Percent inhibition AVEFA) of 50%. For the same compound, the inhibition at 300 g/ha (AVEFA (wild oat); Avena fatua, weed, PPI application, 300 g/ha, read-out: Percent inhibition AVEFA) was 75%, the inhibition at 900 g/ha (AVEFA (wild oat); Avena fatua, weed, PPI application, 900 g/ha, read-out: Percent inhibition AVEFA) was 100% and the “PPI activity GR80, AVEFA” value (AVEFA (wild oat)) was 100 g/ha. The “Pre-emergence activity GR80, SASKR” value (SASKR (russian thistle)) was 100 g/ha, the “PPI activity GR80, PANDI” value (PANDI (fall panicum)) was 300 g/ha and the inhibition at 10 g/ha (ALOMY (blackgrass); Alopecurus myosuroides, weed, PPI application, 10 g/ha, read-out: Percent inhibition ALOMY) was 50%. For the same compound, the inhibition at 30 g/ha (ALOMY (blackgrass); Alopecurus myosuroides, weed, PPI application, 30 g/ha, read-out: Percent inhibition ALOMY) was 60%, the inhibition at 100 g/ha (ALOMY (blackgrass); Alopecurus myosuroides, weed, PPI application, 100 g/ha, read-out: Percent inhibition ALOMY) was 100% and the inhibition at 300 g/ha (ALOMY (blackgrass); Alopecurus myosuroides, weed, PPI application, 300 g/ha, read-out: Percent inhibition ALOMY) was 90%. For the same compound, the inhibition at 900 g/ha (ALOMY (blackgrass); Alopecurus myosuroides, weed, PPI application, 900 g/ha, read-out: Percent inhibition ALOMY) was 100%, the “PPI activity GR80, ALOMY” value (ALOMY (blackgrass)) was 30 g/ha and the “PPI activity GR80, POLCO” value (POLCO (wild buckwheat)) was 100 g/ha. For the same compound, the “Pre-emergence activity (GR80) CHEAL” value [1] was 100 g/ha, the “Post-emergence activity GR80, LOLMG” value (LOLMG (annual ryegrass)) was “[empty]” and the inhibition at 10 g/ha (SETVI (green foxtail); Setaria viridis, weed, PPI application, 10 g/ha, read-out: Percent inhibition SETVI) was 40%. The inhibition at 30 g/ha (SETVI (green foxtail); Setaria viridis, weed, PPI application, 30 g/ha, read-out: Percent inhibition SETVI) was 70%, the inhibition at 100 g/ha (SETVI (green foxtail); Setaria viridis, weed, PPI application, 100 g/ha, read-out: Percent inhibition SETVI) was 70% and the inhibition at 300 g/ha (SETVI (green foxtail); Setaria viridis, weed, PPI application, 300 g/ha, read-out: Percent inhibition SETVI) was 100%. For the same compound, the inhibition at 900 g/ha (SETVI (green foxtail); Setaria viridis, weed, PPI application, 900 g/ha, read-out: Percent inhibition SETVI) was 100% and the “PPI activity GR80, SETVI” value (SETVI (green foxtail)) was 30 g/ha.
`C=C(CC(F)(F)S(=O)(=O)c1ncn(C(=O)N(CC)CC)n1)C[Si](C)(C)C` [Example 20] was tested, and the “PPI activity GR80, AVEFA” value (AVEFA (wild oat)) was 300 g/ha, the “Percent inhibition AVEFA” value (AVEFA (wild oat); weed, PPI application, 10 g/ha) was 0% and the “Percent inhibition AVEFA” value (AVEFA (wild oat); weed, PPI application, 30 g/ha) was 0%. The “Percent inhibition AVEFA” value (AVEFA (wild oat); [2]) was 0%, the “Percent inhibition AVEFA” value (AVEFA (wild oat); [3]) was 0% and the “Percent inhibition AVEFA” value (AVEFA (wild oat); [4]) was 60%. For the same compound, the “Pre-emergence activity GR80, SASKR” value (SASKR (russian thistle)) was “[empty]”, the “PPI activity GR80, PANDI” value (PANDI (fall panicum)) was 100 g/ha and the “PPI activity GR80, ALOMY” value (ALOMY (blackgrass)) was 100 g/ha. For the same compound, the “Percent inhibition ALOMY” value (ALOMY (blackgrass); weed, PPI application, 10 g/ha) was 0%, the “Percent inhibition ALOMY” value (ALOMY (blackgrass); weed, PPI application, 30 g/ha) was 0% and the “Percent inhibition ALOMY” value (ALOMY (blackgrass); [2]) was 20%. The “Percent inhibition ALOMY” value (ALOMY (blackgrass); [3]) was 50%, the “Percent inhibition ALOMY” value (ALOMY (blackgrass); [4]) was 100% and the “PPI activity GR80, POLCO” value (POLCO (wild buckwheat)) was “* (activity observed, at least at highest rate, but <80% inhibition)”. The “Pre-emergence activity (GR80) CHEAL” value [1] was 300 g/ha, the “Post-emergence activity GR80, LOLMG” value (LOLMG (annual ryegrass)) was “[empty]” and the “PPI activity GR80, SETVI” value (SETVI (green foxtail)) was 30 g/ha. For the same compound, the “Percent inhibition SETVI” value (SETVI (green foxtail); weed, PPI application, 10 g/ha) was 0%, the “Percent inhibition SETVI” value (SETVI (green foxtail); weed, PPI application, 30 g/ha) was 70% and the “Percent inhibition SETVI” value (SETVI (green foxtail); [2]) was 40%. For the same compound, the “Percent inhibition SETVI” value (SETVI (green foxtail); [3]) was 100% and the “Percent inhibition SETVI” value (SETVI (green foxtail); [4]) was 100%.
